Experimental data reported in patent publication US20190106460A1, “BINDING INHIBITORS OF THE BETA. TRANSDUCIN REPEAT-CONTAINING PROTEIN” (priority 2011, published 2019).
Like-named read-outs stand apart in the source and are kept apart here. Non-standard residues stand in square brackets, D forms with d. Residues, ends and D or L forms follow the SMILES beside them. *: point of attachment. 2Naphthylsulfonyl = O=S(=O)(c1ccc2ccccc2c1)*; Phe(3-Cl) = N[C@@H](Cc1cccc(Cl)c1)C(=O)O; Phe(3-F) = N[C@@H](Cc1cccc(F)c1)C(=O)O; NMeE = CN[C@@H](CCC(=O)O)C(=O)O; X1 = CCCCOc1ccc(S(=O)(=O)*)cc1; X2 = COc1ccc(S(=O)(=O)*)cc1OC; Tos = Cc1ccc(S(=O)(=O)*)cc1; Propionyl = CCC(=O)*; Bz = O=C(c1ccccc1)*; Moc = COC(=O)*

Key:
β-TrCP1/Skp1 = β-TrCP1/Skp1 (Homo sapiens, UniProt Q9Y297); test: βTrCP ubiquitination assay (Ub assay); format: biochemical; conditions: for Ub Assay 10 μM: 10 μM compound; for Ub Assay 100 μM: 100 μM compound
Sequence of β-TrCP1/Skp1 (P63208 2-163 partner limits assumed, one chain of several): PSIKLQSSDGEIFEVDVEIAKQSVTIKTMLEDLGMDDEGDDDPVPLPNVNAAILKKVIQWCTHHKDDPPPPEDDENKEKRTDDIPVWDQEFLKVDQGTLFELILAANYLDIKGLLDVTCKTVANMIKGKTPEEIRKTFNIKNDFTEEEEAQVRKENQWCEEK
Procedure: (§1) βTrCP Ubiquitination Assay and Selectivity Assays
0.5 μM Peptide substrate (biotin)
(§2) Master mixes were prepared in a 50 mM Herpes buffer at pH 7.5, in 75 mM NaCl and 1 mM DTT without Mg or ATP and peptides were added to a final concentration of 100 μM. Reactions were incubated at room temperature for 30 minutes and then Mg/ATP was added to the mix. Reactions were further incubated for an additional 60 minutes and then stopped by adding SDS gel loading buffer and boiled for 5 minutes. Reactions were run on SDS-PAGE (10%) and transferred to nitrocellulose membranes and probed with HRP-Streptavidin.
Candidate compounds were tested in duplicate at both 10 and 100 μM against the E3 ligase cascades βTrCP(IκBα) and βTrCP(β-catenin). The E3 assays were carried out according to the component concentrations detailed in Table 9. In each case the E2 was HA,6His-UbcH3-(hu,FL), the E1 was 6His-UBE1-(hu,FL) and the ubiquitin (Sigma U6253) was biotinylated at a 5:1 ratio. Substrate phosphorylation was performed in the absence of compound; consequently any observed signal modulation should not reflect inhibition of the up-stream kinase reaction. All other steps (E1, E2 and substrate ubiquitination) were carried out in the presence of compound. The stopped reaction mix (10 μl) was added to an ECL plate loaded with anti c-Myc ( 1/500 Dilution, Millipore 05-724) and blocked with 5% BSA. Binding was allowed to proceed for 1 hour at RT before a wash step (3 40 μl PBST washes). Detection was achieved by binding SA-Ru TAG at 1 μg/ml (1 hour @ RT, 3 40 μl PBST washes) before reading on an MSD Sector Imager 6000.
Assays were performed as described above

Skp2 = Skp2 (Homo sapiens, UniProt Q13309); test: Selectivity assay vs other E3s: Skp2; format: biochemical; conditions: for inhibition at 100 µM: read-out: % Inhibition Skp2 @ (100 μM); for inhibition at 10 µM: read-out: % Inhibition Skp2 @ 10 μM
Sequence of Skp2 (Q13309 whole entry, species assumed): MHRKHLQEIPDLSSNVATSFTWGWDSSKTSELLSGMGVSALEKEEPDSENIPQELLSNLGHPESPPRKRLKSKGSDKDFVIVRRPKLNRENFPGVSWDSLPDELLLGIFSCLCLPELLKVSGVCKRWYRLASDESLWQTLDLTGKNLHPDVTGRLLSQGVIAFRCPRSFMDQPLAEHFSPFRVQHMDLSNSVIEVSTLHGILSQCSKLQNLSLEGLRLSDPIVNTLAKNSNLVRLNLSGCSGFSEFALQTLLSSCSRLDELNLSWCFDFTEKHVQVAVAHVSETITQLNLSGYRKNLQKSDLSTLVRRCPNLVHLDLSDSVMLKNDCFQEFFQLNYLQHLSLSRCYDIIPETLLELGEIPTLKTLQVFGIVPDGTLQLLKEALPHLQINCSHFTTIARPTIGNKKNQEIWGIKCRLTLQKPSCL
Sequence of Skp2 (P63208 whole entry partner, species assumed): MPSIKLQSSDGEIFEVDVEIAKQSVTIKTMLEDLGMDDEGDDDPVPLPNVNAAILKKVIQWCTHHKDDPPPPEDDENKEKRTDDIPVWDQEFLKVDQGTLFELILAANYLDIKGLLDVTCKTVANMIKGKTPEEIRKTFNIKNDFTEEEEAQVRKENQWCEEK
Sequence of Skp2 (Q13616 whole entry partner, species assumed): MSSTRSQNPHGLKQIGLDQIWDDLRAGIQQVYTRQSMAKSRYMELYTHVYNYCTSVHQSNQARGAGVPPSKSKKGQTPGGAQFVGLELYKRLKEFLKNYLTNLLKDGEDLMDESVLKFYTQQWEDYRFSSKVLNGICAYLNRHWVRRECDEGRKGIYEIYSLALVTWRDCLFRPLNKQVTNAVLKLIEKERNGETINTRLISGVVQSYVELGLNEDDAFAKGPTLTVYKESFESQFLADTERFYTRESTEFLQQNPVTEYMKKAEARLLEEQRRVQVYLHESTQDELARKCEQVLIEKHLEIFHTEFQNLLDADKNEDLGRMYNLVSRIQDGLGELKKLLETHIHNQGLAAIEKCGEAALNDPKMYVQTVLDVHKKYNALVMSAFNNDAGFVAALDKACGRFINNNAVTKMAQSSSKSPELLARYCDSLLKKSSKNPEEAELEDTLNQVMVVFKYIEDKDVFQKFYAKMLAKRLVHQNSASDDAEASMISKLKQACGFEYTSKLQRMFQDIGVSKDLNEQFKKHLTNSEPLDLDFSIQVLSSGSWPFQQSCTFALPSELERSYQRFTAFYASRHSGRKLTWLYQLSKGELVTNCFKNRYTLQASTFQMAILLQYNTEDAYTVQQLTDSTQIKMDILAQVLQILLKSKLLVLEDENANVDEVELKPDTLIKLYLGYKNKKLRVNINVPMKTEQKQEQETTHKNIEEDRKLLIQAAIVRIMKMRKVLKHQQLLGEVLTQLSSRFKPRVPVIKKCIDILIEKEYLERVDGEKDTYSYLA
Sequence of Skp2 (P62877 whole entry partner, species assumed): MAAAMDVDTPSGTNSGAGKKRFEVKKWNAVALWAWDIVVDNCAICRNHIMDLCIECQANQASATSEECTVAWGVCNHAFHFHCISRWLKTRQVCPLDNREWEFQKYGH
Procedure: as §1, §2
(§3) Candidate compounds were tested for inhibition of Fbw7 and Skp2 as described above.

βTrCP [1] = target: T1, βTrCP (Homo sapiens, UniProt Q9Y297); test: Biotin pull down assay with biotinylated IκB peptide; format: binding; conditions: for Biotin Pulldown Assay 10 μM: 10 μM compound; for Biotin Pulldown Assay 100 μM: 100 μM compound
T1 sequence (Q9Y297 1-605): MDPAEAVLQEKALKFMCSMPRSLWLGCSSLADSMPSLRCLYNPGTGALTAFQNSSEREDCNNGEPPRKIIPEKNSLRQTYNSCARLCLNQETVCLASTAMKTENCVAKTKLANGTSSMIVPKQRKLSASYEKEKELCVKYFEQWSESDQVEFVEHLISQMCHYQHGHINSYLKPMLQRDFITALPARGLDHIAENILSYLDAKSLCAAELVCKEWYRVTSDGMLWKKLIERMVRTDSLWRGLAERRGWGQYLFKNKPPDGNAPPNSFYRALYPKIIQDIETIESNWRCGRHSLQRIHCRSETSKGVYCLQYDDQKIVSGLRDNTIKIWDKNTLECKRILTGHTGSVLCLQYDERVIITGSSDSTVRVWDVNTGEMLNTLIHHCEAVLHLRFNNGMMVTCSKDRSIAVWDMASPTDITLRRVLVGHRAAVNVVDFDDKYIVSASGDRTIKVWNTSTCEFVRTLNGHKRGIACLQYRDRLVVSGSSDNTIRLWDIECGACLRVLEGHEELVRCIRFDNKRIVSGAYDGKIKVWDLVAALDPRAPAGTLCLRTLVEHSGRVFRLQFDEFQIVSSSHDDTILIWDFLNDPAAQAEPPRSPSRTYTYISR

FBW7/Skp1 = FBW7/Skp1 (Homo sapiens, UniProt Q969H0); test: Selectivity assay vs other E3s: Fbw7; format: biochemical; conditions: for inhibition at 100 µM: read-out: % Inhibition Fbw7 @ (100 μM); for inhibition at 10 µM: read-out: % Inhibition Fbw7 @ 10 μM
Sequence of FBW7/Skp1 (Q969H0 whole entry, species assumed): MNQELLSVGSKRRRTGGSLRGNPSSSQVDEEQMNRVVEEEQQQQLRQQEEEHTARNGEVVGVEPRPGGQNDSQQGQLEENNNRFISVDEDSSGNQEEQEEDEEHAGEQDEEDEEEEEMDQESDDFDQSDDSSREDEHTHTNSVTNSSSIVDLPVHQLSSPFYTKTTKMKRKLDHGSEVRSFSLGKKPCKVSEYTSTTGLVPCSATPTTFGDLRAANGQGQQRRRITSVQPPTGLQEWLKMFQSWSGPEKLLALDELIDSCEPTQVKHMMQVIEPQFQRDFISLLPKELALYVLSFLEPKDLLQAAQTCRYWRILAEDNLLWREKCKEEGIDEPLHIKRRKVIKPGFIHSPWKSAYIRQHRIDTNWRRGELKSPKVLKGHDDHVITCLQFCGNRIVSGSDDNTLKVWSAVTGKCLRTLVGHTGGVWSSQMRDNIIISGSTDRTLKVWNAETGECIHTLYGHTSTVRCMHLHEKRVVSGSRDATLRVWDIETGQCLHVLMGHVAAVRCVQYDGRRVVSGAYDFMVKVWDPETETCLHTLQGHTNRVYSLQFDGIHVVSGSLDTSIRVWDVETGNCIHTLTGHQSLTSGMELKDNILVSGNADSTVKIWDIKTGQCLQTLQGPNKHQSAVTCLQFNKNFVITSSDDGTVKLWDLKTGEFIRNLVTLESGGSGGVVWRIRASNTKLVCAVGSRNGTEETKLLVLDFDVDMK
Sequence of FBW7/Skp1 (P63208 whole entry partner, species assumed): as the sequence (P63208 whole entry partner, species assumed) above
Sequence of FBW7/Skp1 (Q13616 whole entry partner, species assumed): as the sequence (Q13616 whole entry partner, species assumed) above
Sequence of FBW7/Skp1 (P62877 whole entry partner, species assumed): as the sequence (P62877 whole entry partner, species assumed) above
Procedure: as §1, §2
FBW7 selectivity assays were performed in the same manner except using FBW7/Skp1 as E3 component and cyclin E as the substrate. Blots were probed using anti-cyclin E antibody.
as §3

βTrCP [2] = target: βTrCP (Homo sapiens, UniProt Q9Y297); test: Fluorescence polarisation (FP) binding assay with fluorescein-tagged IκB peptide
Target sequence in this assay (P63208 whole entry partner, one chain of several): as the sequence (P63208 whole entry partner, species assumed) above

[3] = Table 11, with spread, read-out: FP IC50/μM
[4] = Tables 1, 3, 7, 8, 10 nM fluorescein-tagged IκB peptide, read-out: FP Assay IC50/μM

SMILES	Ub Assay 10 μM (β-TrCP1/Skp1)	Ub Assay 100 μM (β-TrCP1/Skp1)	inhibition at 100 µM (Skp2; 100 μM, value in brackets) [%]	inhibition at 10 µM (Skp2) [%]	Biotin Pulldown Assay 10 μM (βTrCP [1])	Biotin Pulldown Assay 100 μM (βTrCP [1])	inhibition at 100 µM (FBW7/Skp1; 100 μM, value in brackets) [%]	inhibition at 10 µM (FBW7/Skp1) [%]	IC50 (βTrCP [2]; [3]) [µM]	IC50 (βTrCP [2]; [4]) [µM]	inhibition at 100 µM (Skp2) [%]	inhibition at 100 µM (FBW7/Skp1) [%]	IC50 (βTrCP [2]; FP Assay IC50/μM, Tables 1, 3, 7, 8, 10 nM fluorescein-tagged IκB peptide) [µM]	IC50 (βTrCP [2]; FP IC50/μM, Table 11, with spread) [µM]
CC(=O)N[C@H](CC(=O)O)C(=O)N[C@@H](CCC(=O)O)C(=O)NCC(=O)N[C@@H](Cc1cccc(F)c1)C(=O)N[C@@H](Cc1c[nH]c2ccccc12)C(=O)N[C@@H](CCC(=O)O)C(N)=O [UBP017, Ac-dEGF(3F)WE-NH2] (Ac-[dD]EG[Phe(3-F)]WE-NH2)	reduces/	inhibits	27	10	reduces/	inhibits	0	3	0.102 ± 0.017	0.102	–	–	–	–
NC(=O)[C@H](CCC(=O)O)NC(=O)[C@H](Cc1c[nH]c2ccccc12)NC(=O)[C@H](Cc1cccc(F)c1)NC(=O)CNC(=O)[C@H](CCC(=O)O)NC(=O)[C@@H](CC(=O)O)NC(=O)c1ccccc1 [UBP018, Bz-dEGF(3F)WE-NH2] (Bz-[dD]EG[Phe(3-F)]WE-NH2)	reduces/	inhibits	–	0	reduces/	inhibits	–	0	–	–	0	5	0.173	0.173 ± 0.072
CCC(=O)N[C@H](CC(=O)O)C(=O)N[C@@H](CCC(=O)O)C(=O)NCC(=O)N[C@@H](Cc1cccc(F)c1)C(=O)N[C@@H](Cc1c[nH]c2ccccc12)C(=O)N[C@@H](CCC(=O)O)C(N)=O [UBP019, Et(CO)-dEGF(3F)WE-NH2] (Propionyl-[dD]EG[Phe(3-F)]WE-NH2)	reduces/	inhibits	10	1	reduces/	inhibits	10	0	0.145 ± 0.026	0.145	–	–	–	–
COC(=O)N[C@H](CC(=O)O)C(=O)N[C@@H](CCC(=O)O)C(=O)NCC(=O)N[C@@H](Cc1cccc(F)c1)C(=O)N[C@@H](Cc1c[nH]c2ccccc12)C(=O)N[C@@H](CCC(=O)O)C(N)=O [UBP020, MeO(CO)-dEGF(3F)WE-NH2] (Moc-[dD]EG[Phe(3-F)]WE-NH2)	inhibits/	inhibits	16	0	reduces/	inhibits	8	6	0.076 ± 0.014	–	–	–	–	–
Cc1ccc(S(=O)(=O)N[C@H](CC(=O)O)C(=O)N[C@@H](CC(=O)O)C(=O)NCC(=O)N[C@@H](Cc2cccc(F)c2)C(=O)N[C@@H](Cc2c[nH]c3ccccc23)C(=O)N[C@@H](CCC(=O)O)C(N)=O)cc1 [UBP025, Ts-dDGF(3F)WE-NH2] (Tos-[dD]DG[Phe(3-F)]WE-NH2)	inhibits/	inhibits	22	0	s. reduces/	inhibits	8	1	0.025 ± 0.004	0.025	–	–	–	–
Cc1ccc(S(=O)(=O)N[C@H](CC(=O)O)C(=O)N[C@@H](CCC(=O)O)C(=O)NCC(=O)N[C@@H](Cc2cccc(F)c2)C(=O)N[C@@H](Cc2c[nH]c3ccccc23)C(=O)N[C@@H](CC(=O)O)C(N)=O)cc1 [UBP027, Ts-dEGF(3F)WD-NH2] (Tos-[dD]EG[Phe(3-F)]WD-NH2)	inhibits/	inhibits	6	4	s. reduces/	inhibits	8	3	0.034 ± 0.005	0.034	–	–	–	–
Cc1ccc(S(=O)(=O)N[C@H](CC(=O)O)C(=O)N[C@@H](CC(=O)O)C(=O)NCC(=O)N[C@@H](Cc2cccc(F)c2)C(=O)N[C@@H](Cc2c[nH]c3ccccc23)C(=O)N[C@@H](CC(=O)O)C(N)=O)cc1 [UBP028, Ts-dDGF(3F)WD-NH2] (Tos-[dD]DG[Phe(3-F)]WD-NH2)	inhibits/	inhibits	14	0	reduces/	inhibits	10	4	0.081 ± 0.02	0.081	–	–	–	–
COc1ccc(S(=O)(=O)N[C@H](CC(=O)O)C(=O)N[C@@H](CCC(=O)O)C(=O)NCC(=O)N[C@@H](Cc2cccc(F)c2)C(=O)N[C@@H](Cc2c[nH]c3ccccc23)C(=O)N[C@@H](CCC(=O)O)C(N)=O)cc1OC [UBP029, 3,4-(MeO)2-PhSO2-dEGF(3F)WE-NH2] (X2-[dD]EG[Phe(3-F)]WE-NH2)	reduces/	inhibits	19	19	reduces/	inhibits	0	2	0.042 ± 0.001	–	–	–	–	–
CCCCOc1ccc(S(=O)(=O)N[C@H](CC(=O)O)C(=O)N[C@@H](CCC(=O)O)C(=O)NCC(=O)N[C@@H](Cc2cccc(F)c2)C(=O)N[C@@H](Cc2c[nH]c3ccccc23)C(=O)N[C@@H](CCC(=O)O)C(N)=O)cc1 [UBP030, 4-(BuO)-PhSO2-dEGF(3F)WE-NH2] (X1-[dD]EG[Phe(3-F)]WE-NH2)	reduces/	inhibits	13	0	reduces/	inhibits	12	7	0.056 ± 0.008	0.056	–	–	–	–
NC(=O)[C@H](CCC(=O)O)NC(=O)[C@H](Cc1c[nH]c2ccccc12)NC(=O)[C@H](Cc1cccc(F)c1)NC(=O)CNC(=O)[C@H](CCC(=O)O)NC(=O)[C@@H](CC(=O)O)NS(=O)(=O)c1ccc2ccccc2c1 [UBP031, 2-NaphthylSO2-dEGF(3F)WE-NH2] (2Naphthylsulfonyl-[dD]EG[Phe(3-F)]WE-NH2)	reduces/	inhibits	17	0	reduces/	inhibits	11	10	0.044 ± 0.005	–	–	–	–	–
Cc1ccc(S(=O)(=O)N[C@H](CC(=O)O)C(=O)N[C@@H](CCC(=O)O)C(=O)NCC(=O)N[C@@H](Cc2cccc(Cl)c2)C(=O)N[C@@H](Cc2c[nH]c3ccccc23)C(=O)N(C)[C@@H](CCC(=O)O)C(N)=O)cc1 [UBP033, Ts-dEGF(3Cl)WE(Me)-NH2] (Tos-[dD]EG[Phe(3-Cl)]W[NMeE]-NH2)	–	inhibits	10	0	–	inhibits	11	7	–	0.017	–	–	–	–
